The subject of assay [1] is A2780. Nature of the assay: Induction of apoptosis in human A2780 cells assessed as loss of cell membrane integrity at 30 uM measured for 72 hrs by acridine orange/propidium iodide staining based fluorescence microscopic analysis. The assay is classed as functional.
The subject of a further assay is MCF7. The assay can be described thus: Anticancer activity against human MCF7 cells measured after 96 hrs by sulforhodamine B assay. Type of assay: functional, cell-based. Conditions: MCF7, 96 h. On the technique in general: The SRB assay estimates cell density from bound dye.
The test system of a further assay is NIH3T3. Nature of the assay: Cytotoxicity against mouse NIH/3T3 cells measured after 96 hrs by sulforhodamine B assay. Type of assay: cell-based. The conditions noted are these: NIH3T3, 96 h.
The test system of assay [2] is A2780. The assay can be described thus: Induction of apoptosis in human A2780 cells assessed as membrane blebbing at 30 uM measured for 72 hrs by acridine orange/propidium iodide staining based fluorescence microscopic analysis. Type of assay: functional, cell-based.
Assay [3] deals with A2780. Nature of the assay: Induction of necrosis in human A2780 cells at 30 uM measured for 72 hrs by acridine orange/propidium iodide staining based fluorescence microscopic analysis. Type of assay: functional, cell-based.
The test system of assay [4] is A2780. The assay can be described thus: Induction of apoptosis in human A2780 cells assessed as […] cell death at 30 uM measured after 24 to 72 hrs by annexin v flow cytometry analysis. The assay is classed as functional, cell-based.
For a further assay, the system named is 518A2. Nature of the assay: Anticancer activity against human 518A2 cells measured after 96 hrs by sulforhodamine B assay. Conditions: 518A2, 96 h. The assay is classed as functional, cell-based.
The test system of the next assay is 8505C. Nature of the assay: Anticancer activity against human 8505C cells measured after 96 hrs by sulforhodamine B assay. The assay is classed as functional, cell-based.
A further assay concerns A253 cell line. Nature of the assay: Anticancer activity against human A253 cells measured after 96 hrs by sulforhodamine B assay. Type of assay: functional, cell-based. The conditions noted are these: A253, 96 h.
Assay [5] concerns A2780. The assay can be described thus: Anticancer activity against human A2780 cells measured after 96 hrs by sulforhodamine B assay. The assay is classed as functional, cell-based. The conditions noted are these: A2780, 96 h.
A further assay has as its system A549. Nature of the assay: Anticancer activity against human A549 cells measured after 96 hrs by sulforhodamine B assay. The assay is classed as functional, cell-based. The conditions noted are these: A549, 96 h.
The next assay deals with DLD-1. Nature of the assay: Anticancer activity against human DLD1 cells measured after 96 hrs by sulforhodamine B assay. Type of assay: functional, cell-based. The conditions noted are these: DLD-1, 96 h.
The test system of the next assay is HT-29. Nature of the assay: Anticancer activity against human HT-29 cells measured after 96 hrs by sulforhodamine B assay. Type of assay: functional, cell-based. The conditions noted are these: HT-29, 96 h.
The test system of a further assay is SW-1736. Nature of the assay: Anticancer activity against human SW1736 cells measured after 96 hrs by sulforhodamine B assay. Type of assay: functional, cell-based. The conditions noted are these: SW-1736, 96 h.
Assay [6] deals with A2780. The assay can be described thus: Induction of apoptosis in human A2780 cells assessed as loss of cell membrane integrity at 15 uM measured for 72 hrs by acridine orange/propidium iodide staining based fluorescence microscopic analysis. The assay is classed as functional.
In assay [7] the test system is A2780. Nature of the assay: Induction of apoptosis in human A2780 cells assessed as membrane blebbing at 15 uM measured for 72 hrs by acridine orange/propidium iodide staining based fluorescence microscopic analysis. Type of assay: functional, cell-based.
For assay [8], the system named is A2780. Nature of the assay: Induction of necrosis in human A2780 cells at 15 uM measured for 72 hrs by acridine orange/propidium iodide staining based fluorescence microscopic analysis. Type of assay: functional, cell-based.
Assay [9] concerns A2780. The assay can be described thus: Induction of apoptosis in human A2780 cells assessed as […] cell death at 15 uM measured after 24 to 72 hrs by annexin v flow cytometry analysis. Type of assay: functional, cell-based. (Flow cytometry measures light scatter and fluorescence of single cells or particles in a stream.)

SMILES strings stand for the structures. The source made the active and inactive calls. The rule behind the calls is not given here.

As usually defined, the EC50 is the concentration giving half of the maximal effect. High values mean weaker potency, low ones greater potency.

Take `CC1(C)CC[C@]2(C(=O)O)CC[C@]3(C)C(=CC[C@@H]4[C@@]5(C)C[C@@H](O)[C@H](O)C(C)(C)[C@@H]5CC[C@]43C)[C@@H]2C1` [MASLINIC ACID]: the outcome with A2780 [1], in the assay on A2780 [2], in the assay with A2780 [3] and with A2780 [4] was Active. The EC50 in the assay with MCF7 was determined as 24.4 µM; in the assay on NIH3T3 it was 16.6 µM.

For `CC(=O)O[C@@H]1C[C@]2(C)[C@H]3CC=C4[C@@H]5CC(C)(C)CC[C@]5(C(=O)O)CC[C@@]4(C)[C@]3(C)CC[C@H]2C(C)(C)[C@H]1OC(C)=O`, the EC50 with 518A2 was determined as 14.6 µM; in the assay on 8505C, 5.7 µM; in the assay on A253 cell line, 7.7 µM; in the assay with A2780 [5], 17.3 µM; with A549, 4.2 µM; with DLD-1, 17 µM. In addition, the results for the EC50 in the assay with HT-29, in the assay on MCF7 and in the assay on NIH3T3 were 8.5 µM, 8.5 µM and 10.4 µM, respectively.

On to `CC1(C)CC[C@]2(C(=O)O)CC[C@]3(C)C(=CC[C@@H]4[C@@]5(C)C[C@@H](O)[C@H](OC(=O)c6ccccc6F)C(C)(C)[C@@H]5CC[C@]43C)[C@@H]2C1`, for which the EC50 in the assay with 518A2 was found to be 11.8 µM; with 8505C, 12.6 µM; in the assay with A253 cell line it was 6.6 µM; in the assay with A2780 [5] it was 6 µM; in the assay on A549, 9.8 µM; with DLD-1 it was 10.1 µM. Also, the half-maximal effective concentration (EC50) stood at 6.7 µM with MCF7, 21.2 µM in the assay with SW-1736 and 12.5 µM in the assay with NIH3T3.

As for `CC1(C)CC[C@]2(C(=O)O)CC[C@]3(C)C(=CC[C@@H]4[C@@]5(C)C[C@@H](O)[C@H](OC(=O)c6ccccc6Cl)C(C)(C)[C@@H]5CC[C@]43C)[C@@H]2C1`, the half-maximal effective concentration (EC50) in the assay with 518A2 stood at 6.8 µM; with 8505C it was 6.9 µM; with A253 cell line, 5.4 µM; in the assay with A549 it was 5.8 µM; in the assay on DLD-1 it was 5.2 µM; in the assay on MCF7 it was 3.3 µM. In addition, the EC50 worked out at 12.9 µM with SW-1736 and 7.1 µM in the assay on NIH3T3.

Turning to `CC1(C)CC[C@]2(C(=O)O)CC[C@]3(C)C(=CC[C@@H]4[C@@]5(C)C[C@@H](OC(=O)c6ccccc6Cl)[C@H](O)C(C)(C)[C@@H]5CC[C@]43C)[C@@H]2C1`, the EC50 with 518A2 is 8.3 µM; in the assay with 8505C, 8.9 µM; with A253 cell line, 10.4 µM; in the assay with A2780 [5], 4.7 µM; in the assay on A549 it was 7.5 µM; in the assay on DLD-1, 7.6 µM. The EC50 in the assay on HT-29 amounted to 8.5 µM; with MCF7, 5.6 µM; in the assay with SW-1736, 13.9 µM; in the assay on NIH3T3, 10.4 µM. In addition, the outcome with A2780 [6], with A2780 [7], in the assay with A2780 [8] and with A2780 [9] was Active.

Turning to `CC(=O)O[C@@H]1C[C@]2(C)[C@H]3CC=C4[C@@H]5CC(C)(C)CC[C@]5(C(=O)O)CC[C@@]4(C)[C@]3(C)CC[C@H]2C(C)(C)[C@H]1O`, the EC50 in the assay on 518A2 turned out to be 21 µM; with 8505C it was 8.8 µM; in the assay with A253 cell line it was 11 µM; in the assay with A2780 [5], 19.9 µM; in the assay on A549 it was 4.3 µM; in the assay on DLD-1, 23.1 µM. For the same compound, the concentration giving a half-maximal response (EC50) in the assay with HT-29 turned out to be 10.7 µM; with MCF7, 11.5 µM; with NIH3T3, 15.4 µM.

`CC1(C)CC[C@]2(C(=O)O)CC[C@]3(C)C(=CC[C@@H]4[C@@]5(C)C[C@@H](OC(=O)c6ccccc6F)[C@H](O)C(C)(C)[C@@H]5CC[C@]43C)[C@@H]2C1`: the EC50 with 518A2 came out at 11.6 µM; with 8505C it was 12.6 µM; in the assay with A253 cell line it was 12.9 µM; with A2780 [5] it was 6 µM; in the assay with A549, 9.4 µM; in the assay on DLD-1 it was 10.7 µM. The EC50 came to 6.3 µM in the assay on HT-29, 7.1 µM in the assay with MCF7, 16.9 µM in the assay with SW-1736 and 16.9 µM in the assay with NIH3T3.

For `CC1(C)CC[C@]2(C(=O)O)CC[C@]3(C)C(=CC[C@@H]4[C@@]5(C)C[C@@H](OC(=O)c6cc([N+](=O)[O-])cc([N+](=O)[O-])c6)[C@H](O)C(C)(C)[C@@H]5CC[C@]43C)[C@@H]2C1`, the EC50 amounted to 12.1 µM with 518A2; 8.1 µM in the assay on 8505C; 9.7 µM in the assay with A253 cell line; 6.2 µM with A2780 [5]; 6.1 µM with A549; 7.1 µM with DLD-1. For the same compound, the EC50 in the assay on HT-29 came out at 11.1 µM; in the assay on MCF7 it was 5.1 µM; in the assay on SW-1736 it was 14.8 µM; with NIH3T3, 17.4 µM.

`CC1(C)CC[C@]2(C(=O)O)CC[C@]3(C)C(=CC[C@@H]4[C@@]5(C)C[C@@H](OC(=O)c6ccccc6)[C@H](OC(=O)c6ccccc6)C(C)(C)[C@@H]5CC[C@]43C)[C@@H]2C1`: the EC50 in the assay with 8505C is 16.4 µM; in the assay with A253 cell line it was 12.7 µM; with A2780 [5] it was 11.2 µM; in the assay with A549, 17.4 µM; with DLD-1, 17.9 µM; with HT-29, 16.5 µM. Also, the EC50 in the assay on SW-1736 worked out at 19.4 µM; with NIH3T3 it was 23.2 µM.

Take `CC1(C)CC[C@]2(C(=O)O)CC[C@]3(C)C(=CC[C@@H]4[C@@]5(C)C[C@@H](O)[C@H](OC(=O)c6cc([N+](=O)[O-])cc([N+](=O)[O-])c6)C(C)(C)[C@@H]5CC[C@]43C)[C@@H]2C1`: the EC50 was 7.5 µM with 8505C; 8.3 µM in the assay with A253 cell line; 5.5 µM in the assay on A2780 [5]; 7.2 µM in the assay on DLD-1; 9.4 µM with HT-29; 4.2 µM in the assay with MCF7. In addition, the EC50 with SW-1736 turned out to be 12.8 µM; in the assay with NIH3T3 it was 15.7 µM.

As for `CC1(C)CC[C@]2(C(=O)O)CC[C@]3(C)C(=CC[C@@H]4[C@@]5(C)C[C@@H](OC(=O)c6cccnc6Cl)[C@H](OC(=O)c6cccnc6Cl)C(C)(C)[C@@H]5CC[C@]43C)[C@@H]2C1`, the EC50 in the assay with 518A2 is 17.1 µM; in the assay on 8505C, greater than 30 µM; with A253 cell line it was greater than 30 µM; in the assay with A2780 [5], 29.3 µM; with A549, greater than 30 µM; with DLD-1 it was greater than 30 µM. Moreover, the EC50 in the assay with HT-29, in the assay with MCF7, with SW-1736 and with NIH3T3 was greater than 30 µM each time.

Regarding `CC1(C)CC[C@]2(C(=O)O)CC[C@]3(C)C(=CC[C@@H]4[C@@]5(C)C[C@@H](OC(=O)c6ccccc6)[C@H](O)C(C)(C)[C@@H]5CC[C@]43C)[C@@H]2C1`, the EC50 in the assay on 518A2 was determined as 15.5 µM; with 8505C it was 11.2 µM; with A253 cell line, 9 µM; in the assay with A2780 [5], 6.4 µM; with A549, 9.1 µM; in the assay with DLD-1, 10.3 µM. Besides, the figures for the EC50 in the assay with HT-29, with SW-1736 and in the assay on NIH3T3 were 12.7 µM, 18.2 µM and 15 µM, respectively.

These data come from ChEMBL document CHEMBL4364317, “2-O-(2-chlorobenzoyl) maslinic acid triggers apoptosis in A2780 human ovarian carcinoma cells” (Eur J Med Chem, 2019).
